# Measured values taken from patent publication US8916567B2, “Certain crystalline hydrates, pharmaceutical compositions thereof and methods for preparation and use thereof” (Universal Technology Alliance, Inc., priority 2009, dated 2014).
# Like-named read-outs stand apart in the source and are kept apart here.
# Legend:
# Staphylococcus aureus = test: Minimum inhibitory concentration (MIC) in vitro, agar dilution method, quality control strain; format: cell-based; details: strain S. AT C C25923 (Table 7 No. 1); hydrate
# Procedure, shortened: (§1)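 CLSI agar dilution; clinical isolates, Sichuan/Beijing, Mar 2007–May 2008. Stock in DMSO, diluted with sterile water. Read-out: MIC per strain, summarised as MIC50/MIC90/range.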
# E. feacalis = test: Minimum inhibitory concentration (MIC) in vitro, agar dilution method; format: cell-based; details: hydrate
# Procedure, shortened: as §1
# S. epidermidis MSSE = test: as above; format: cell-based
# Procedure, shortened: as §1
# [1] = test system: Staphylococcus aureus MRSA; test: as above; format: cell-based
# Procedure, shortened: as §1
# E. feacium = test: as above; format: cell-based
# Procedure, shortened: as §1
# S. epidermidis MRSE = test: as above; format: cell-based; details: hydrate
# Procedure, shortened: as §1
# [2] = test system: Staphylococcus aureus MSSA; test: as above; format: cell-based
# Procedure, shortened: as §1
# [3] = Solubility in different solvents according to Chinese Pharmacopeia (2005 edition); format: physicochemical; details: for Result: at the given solute:solvent ratio
# Description: The solubility of the (S)—[N-3-(3′-fluoro-4′-(4″-phenylpiperazinyl))phenyl-2-oxo-5-oxazolelidinyl]methylacetamide hydrates was tested with different solvents, and the test results are shown in Tables 15-19. The solubility was measured according to Chinese Pharmacopeia (2005 edition).
# [4] = E. feacalis (5 strains), clinically isolated
# [5] = S. ep MSSE (10 strains), clinically isolated, hydrate
# [6] = S. MRSA (10 strains), clinically isolated, hydrate
# [7] = E. feacium (5 strains), clinically isolated, hydrate
# [8] = S. ep MRSE (10 strains), clinically isolated
# [9] = S. MSSA (11 strains), clinically isolated, hydrate
smiles,measurement,setting,value
"CC(=O)NC[C@H]1CN(c2ccc(N3CCN(c4ccccc4)CC3)c(F)c2)C(=O)O1 [½ hydrate, (S)—[N-3-(3′-fluoro-4′-(4″-phenylpiperazinyl))phenyl-2-oxo-5-oxazolidinyl]methyl acetamide 1/2 hydrate]",MIC,Staphylococcus aureus,0.25 µg/mL
same,MIC50,E. feacalis; [4],0.125 µg/mL
same,MIC90,E. feacalis; [4],0.25 µg/mL
same,MICrange,E. feacalis; [4],0.06 to 0.25 µg/mL
same,MIC,E. feacalis; strain Efa 54 (Table 8 No. 20),0.06 µg/mL
same,MIC,E. feacalis; strain Efa 116 (Table 8 No. 16),0.25 µg/mL
same,MIC,E. feacalis; strain Efa 3006 (Table 8 No. 18),0.06 µg/mL
same,MIC,E. feacalis; strain Efa 33748 (Table 8 No. 17),0.25 µg/mL
same,MIC90,S. epidermidis MSSE; [5],0.25 µg/mL
same,MICrange,S. epidermidis MSSE; [5],0.06 to 0.25 µg/mL
same,MIC50,"S. epidermidis MSSE; Staphylococcus epidermidis, S. ep MSSE (10 strains), clinically isolated, read-out: MIC50",0.25 µg/mL
same,MIC,"S. epidermidis MSSE; Staphylococcus epidermidis, strain S. ep MSSE113 (Table 7 No. 24), read-out: MIC",0.25 µg/mL
same,MIC,"S. epidermidis MSSE; Staphylococcus epidermidis, strain S. ep MSSE118 (Table 8 No. 2), read-out: MIC",0.25 µg/mL
same,MIC,"S. epidermidis MSSE; Staphylococcus epidermidis, strain S. ep MSSE140 (Table 8 No. 3), read-out: MIC",0.25 µg/mL
same,MIC,"S. epidermidis MSSE; strain S. ep MSSE87 (Table 7 No. 23), hydrate",0.06 µg/mL
same,MIC,"S. epidermidis MSSE; strain S. ep MSSE88 (Table 8 No. 5), hydrate",0.25 µg/mL
same,MIC,"S. epidermidis MSSE; strain S. ep MSSE116 (Table 7 No. 25), hydrate",0.25 µg/mL
same,MIC,"S. epidermidis MSSE; strain S. ep MSSE119 (Table 7 No. 27), hydrate",0.25 µg/mL
same,MIC,"S. epidermidis MSSE; strain S. ep MSSE137 (Table 8 No. 4), hydrate",0.25 µg/mL
same,MIC,"S. epidermidis MSSE; strain S. ep MSSE142 (Table 7 No. 26), hydrate",0.125 µg/mL
same,MIC,"S. epidermidis MSSE; strain S. ep MSSE153 (Table 8 No. 1), hydrate",0.25 µg/mL
same,MIC50,[1]; [6],0.25 µg/mL
same,MIC90,[1]; [6],0.25 µg/mL
same,MICrange,[1]; [6],0.25 to 0.5 µg/mL
same,MIC,"[1]; Staphylococcus aureus, MRSA, strain S. MRSA 101 (Table 7 No. 14), read-out: MIC",0.5 µg/mL
same,MIC,"[1]; Staphylococcus aureus, MRSA, strain S. MRSA 201 (Table 7 No. 13), read-out: MIC",0.5 µg/mL
same,MIC,"[1]; Staphylococcus aureus, MRSA, strain S. MRSA B27 (Table 7 No. 21), read-out: MIC",0.25 µg/mL
same,MIC,"[1]; strain S. MRSA 29 (Table 7 No. 15), hydrate",0.25 µg/mL
same,MIC,"[1]; strain S. MRSA B105 (Table 7 No. 17), hydrate",0.25 µg/mL
same,MIC,"[1]; strain S. MRSA B143 (Table 7 No. 19), hydrate",0.25 µg/mL
same,MIC,"[1]; strain S. MRSA B151 (Table 7 No. 20), hydrate",0.25 µg/mL
same,MIC,"[1]; strain S. MRSA B164 (Table 7 No. 16), hydrate",0.25 µg/mL
same,MIC,"[1]; strain S. MRSA B199 (Table 7 No. 22), hydrate",0.25 µg/mL
same,MIC,"[1]; strain S. MRSA B617 (Table 7 No. 18), hydrate",0.25 µg/mL
same,MIC50,E. feacium; [7],0.5 µg/mL
same,MIC90,E. feacium; [7],1 µg/mL
same,MICrange,E. feacium; [7],0.25 to 1 µg/mL
same,MIC,"E. feacium; strain Efm 98 (Table 8 No. 21), hydrate",0.25 µg/mL
same,MIC,"E. feacium; strain Efm 171 (Table 8 No. 25), hydrate",0.25 µg/mL
same,MIC,E. feacium; strain Efm 197 (Table 8 No. 22),0.5 µg/mL
same,MIC,"E. feacium; strain Efm N3 (Table 8 No. 23), hydrate",0.5 µg/mL
same,MIC,"E. feacium; strain Efm N4 (Table 8 No. 24), hydrate",1 µg/mL
same,MIC50,S. epidermidis MRSE; [8],0.25 µg/mL
same,MIC90,S. epidermidis MRSE; [8],0.25 µg/mL
same,MICrange,S. epidermidis MRSE; [8],0.25 µg/mL
same,MIC,S. epidermidis MRSE; strain S. ep MRSE4 (Table 8 No. 9),0.25 µg/mL
same,MIC,S. epidermidis MRSE; strain S. ep MRSE20 (Table 8 No. 6),0.25 µg/mL
same,MIC,S. epidermidis MRSE; strain S. ep MRSE87 (Table 8 No. 13),0.25 µg/mL
same,MIC,S. epidermidis MRSE; strain S. ep MRSE90 (Table 8 No. 10),0.25 µg/mL
same,MIC,S. epidermidis MRSE; strain S. ep MRSE101 (Table 8 No. 7),0.25 µg/mL
same,MIC,S. epidermidis MRSE; strain S. ep MRSE105 (Table 8 No. 11),0.25 µg/mL
same,MIC,S. epidermidis MRSE; strain S. ep MRSE140 (Table 8 No. 14),0.25 µg/mL
same,MIC,S. epidermidis MRSE; strain S. ep MRSE142 (Table 8 No. 12),0.25 µg/mL
same,MIC,S. epidermidis MRSE; strain S. ep MRSE210 (Table 8 No. 15),0.25 µg/mL
same,MIC,S. epidermidis MRSE; strain S. ep MRSE211 (Table 8 No. 8),0.25 µg/mL
same,MIC50,[2]; [9],0.25 µg/mL
same,MIC90,[2]; [9],0.25 µg/mL
same,MICrange,[2]; [9],0.25 to 0.5 µg/mL
same,MIC,"[2]; Staphylococcus aureus, MSSA, strain S. MSSA 195 (Table 7 No. 6), read-out: MIC",0.5 µg/mL
same,MIC,"[2]; Staphylococcus aureus, MSSA, strain S. MSSA 201 (Table 7 No. 11), read-out: MIC",0.25 µg/mL
same,MIC,"[2]; Staphylococcus aureus, MSSA, strain S. MSSA 466 (Table 7 No. 8), read-out: MIC",0.25 µg/mL
same,MIC,"[2]; Staphylococcus aureus, MSSA, strain S. MSSA 519 (Table 7 No. 9), read-out: MIC",0.5 µg/mL
same,MIC,"[2]; strain S. MSSA 123 (Table 7 No. 3), hydrate",0.25 µg/mL
same,MIC,"[2]; strain S. MSSA 187 (Table 7 No. 7), hydrate",0.25 µg/mL
same,MIC,"[2]; strain S. MSSA 195 (Table 7 No. 12), hydrate",0.25 µg/mL
same,MIC,"[2]; strain S. MSSA 232 (Table 7 No. 2), hydrate",0.25 µg/mL
same,MIC,"[2]; strain S. MSSA 275 (Table 7 No. 10), hydrate",0.25 µg/mL
same,MIC,"[2]; strain S. MSSA 520 (Table 7 No. 4), hydrate",0.25 µg/mL
same,MIC,"[2]; strain S. MSSA 580 (Table 7 No. 5), hydrate",0.25 µg/mL
same,Solubility compared with the anhydride,[3]; different solvents,sometimes more soluble than the anhydride
same,Result,[3]; solvent 0.1N Hydrochloric acid,Dissolved
same,Result,[3]; solvent 0.1N Sodium hydroxide,Insoluble
same,Result,[3]; solvent Acetonitrile,Dissolved
same,Result,[3]; solvent Ethanol,Dissolved
same,Result,[3]; solvent Methanol,Dissolved
same,Result,"[3]; solvent Water, hydrate",Dissolved
